# Patent US20210302113A1, “FLUORINATED DIAMINOOLEFINS AND METHODS OF USING THE SAME” (3M INNOVATIVE PROPERTIES COMPANY, priority 2017, published 2021)
# Assay: Thermal stability with absorbents, GC-FID purity after stirring at 60° C. for 24 h
# Assay type: physicochemical
# Description: The thermal stability was measured by charging a weighed amount of (E)-1,4-bis(perfluoromorpholino)but-2-ene (having a purity of 98.8%) into glass vials and then adding a weighed amount of absorbent. (The purity of the composition was measured by analyzing the sample using GC-FID and comparing the area of the peak of interest to the total peak areas in the chromatogram.) The mixture was stirred at 60° C. for 24 h and then analyzed by GC-FID. The percent purity of the treated sample was determined by the peak area of the (E)-1,4-bis(perfluoromorpholino)but-2-ene peak versus the total peak areas in the GC-FID chromatogram.
structure (smiles),measurement,setting,value
"FC1(F)OC(F)(F)C(F)(F)N(C/C=C/CN2C(F)(F)C(F)(F)OC(F)(F)C2(F)F)C1(F)F [(E)-1,4-bis(perfluoromorpholino)but-2-ene]",GC Purity,"4 Angstrom Molecular Sieves, starting purity 98.8%",98.8%
same,GC Purity,"Activated Carbon, starting purity 98.8%",98.8%
same,GC Purity,"Basic Alumina, starting purity 98.8%",99.5%
same,GC Purity,"K2CO3, starting purity 98.8%",98.9%
same,GC Purity,"No Adsorbent, starting purity 98.8%",98.8%
same,GC Purity,"Silica Gel, starting purity 98.8%",98.8%
